Where two headings read alike, the source gives them in different places.
Experiments:
[1] = tested on: A549 human lung cells expressing low Bcl-2 and high Bcl-XL levels; test: Acute cytotoxicity (apoptotic activity), Alamar Blue viability, A549 cells; assay type: cell-based
Method: (§1) The biological activity of the compounds provided herein were assessed in cellular system by the method similar to the one described by Amundson et al. (Amundson, S. A. et al, Cancer Research 2000, 60, 6101-6110), which is incorporated herein by reference in its entirety. The compounds were tested for acute cytotoxicity (apoptotic activity) using two human cancer cell lines expressing high levels of either Bcl-2 or BCl-XL. HL60, human leukemic cells expressing high Bcl-2 and low BCl-XL levels, and A549 human lung cells expressing low Bcl-2 and high BCl-XL levels, were incubated with the compounds at concentrations between 0.5 and 1000 μg/mL for 4 hours at 37° C., 5% CO2. The number of viable cells were measured by mitochondrial transformation of Alamar Blue to a fluorescent dye. LC50 values for each test compound and controls are provided in the individual examples that follow.
(§2) The compounds provided herein were tested for acute cytoxicity (apoptotic activity) using two human cancer cell lines expressing high levels of either Bcl-2 or BCl-XL. HL-60 cells expressing high Bcl-2 and low Bcl-XL levels, and A549 human lung cells expressing low Bcl-2 and high Bcl-XL levels were incubated with the compounds provided herein at concentrations between 0.5 and 1000 μg/mL for 4 hours at 37° C., 5% CO2. The number of viable cells were measured by mitochondrial transformation of Alamar Blue to a fluorescent dye. As negative controls, the compounds were tested against the cell lines with low levels of Bcl-2 expression, viz., MDA-453 cells. LC50 values for each compound and controls were determined.

[2] = tested on: HL60, human leukemic cells expressing high Bcl-2 and low Bcl-XL levels; test: Acute cytotoxicity (apoptotic activity), Alamar Blue viability, HL-60 cells; assay type: cell-based
Method: as §1, §2

[3] = Homo sapiens, A549; 4 hours at 37° C.; read-out: LC50 value in A549 cell lines
[4] = Homo sapiens, HL-60; 4 hours at 37° C.; read-out: LC50 value in HL-60 cell lines
[5] = Homo sapiens, A549, 4 h; read-out: LC 50 (μM) A549
[6] = Homo sapiens, HL-60, 4 h; read-out: LC 50 (μM) HL-60

SMILES	CC50 [1, 5]	CC50 [2, 6]	also measured
O=S(=O)(c1ccccc1)c1ccc(S(=O)(=O)c2ccccc2)[n+]([O-])n1 [Example 1, 3,6-bis(benzenesulfonyl)pyridazine-1-oxide]			CC50 [1, 3]: 268 µM; CC50 [2, 4]: 20.5 µM
[O-][n+]1nc(Oc2ccccc2)ccc1Oc1ccccc1 [Example 2, 3,6-diphenoxvpyridazine-1-oxide]			CC50 ([1]; 4 hours at 37° C.; read-out: LC50 value in A549 cell lines): > 500 µM; CC50 ([2]; 4 hours at 37° C.; read-out: LC50 value in HL-60 cell lines): > 500 µM
O=S(=O)(c1ccc(S(=O)(=O)C2CCCCC2)[n+]([O-])n1)C1CCCCC1 [Example 3, 3,6-bis-cyclohexanesulfonyl-pyridazine-1-oxide]			CC50 [1, 3]: 192 µM; CC50 [2, 4]: 32.3 µM
O=S(=O)(c1ccc(Cl)n[n+]1[O-])C1CCCCC1 [Example 4, 3-chloro-6-cyclohexanesulfonyl-pyridazine-1-oxide]			CC50 [1, 3]: 188 µM; CC50 [2, 4]: 20.2 µM
O=S(=O)(c1ccccc1)c1ccc(S(=O)(=O)C2CCCCC2)[n+]([O-])n1 [Example 5, 3-benzenesulfonyl-6-cyclohexanesulfonyl-pyridazine-1-oxide]			CC50 [1, 3]: 279 µM; CC50 [2, 4]: 32.9 µM
Clc1ccc(Cl)nn1 [compound 1]	> 200 µM	> 200 µM	
[O-][n+]1nc(Cl)ccc1Cl [compound 2]	> 200 µM	< 50 µM	
COc1ccc(Cl)[n+]([O-])n1 [compound 3]	> 200 µM	> 200 µM	
[O-][n+]1nc(Oc2ccccc2)ccc1Oc1ccccc1 [compound 4]	> 200 µM	> 200 µM	
[O-][n+]1nc(Sc2ccccc2)ccc1Sc1ccccc1 [compound 5]		> 200 µM	
[O-][n+]1nc(Sc2ccccn2)ccc1Sc1ccccn1 [compound 7, reference compound]	> 200 µM	> 200 µM	
O=[N+]([O-])c1ccc(Sc2ccc(Sc3ccc([N+](=O)[O-])cc3)nn2)cc1 [compound 9]			CC50 ([1]; Homo sapiens, A549, 4 h, read-out: LC 50 (μM) A549): > 200 µM; CC50 ([2]; Homo sapiens, HL-60, 4 h, read-out: LC 50 (μM) HL-60): > 200 µM
COc1ccc(Sc2ccc(Sc3ccc(OC)cc3)[n+]([O-])n2)cc1 [compound 10]	> 200 µM	> 200 µM	
CCS(=O)(=O)c1ccc(S(=O)(=O)CC)[n+]([O-])n1 [compound 12]	50 to 200 µM	50 to 200 µM	
O=S(=O)(c1ccc(S(=O)(=O)C2CCCC2)[n+]([O-])n1)C1CCCC1 [compound 13]	> 200 µM	< 50 µM	
O=S(=O)(Cc1ccccc1)c1ccc(S(=O)(=O)Cc2ccccc2)[n+]([O-])n1 [compound 14]	> 200 µM	> 200 µM	
Cc1cc(Cl)[n+]([O-])nc1Cl [compound 17]	> 200 µM	> 200 µM	
Cc1cccc(S(=O)(=O)c2ccc(S(=O)(=O)c3cccc(C)c3)[n+]([O-])n2)c1 [compound 18]	> 200 µM	> 200 µM	
Cc1ccccc1S(=O)(=O)c1ccc(S(=O)(=O)c2ccccc2C)[n+]([O-])n1 [compound 19]	> 200 µM	50 to 200 µM	
O=S(=O)(c1ccc(S(=O)(=O)C2CCCCC2)[n+]([O-])n1)C1CCCCC1 [compound 20]	> 200 µM	< 50 µM	
COc1cccc(S(=O)(=O)c2ccc(S(=O)(=O)c3cccc(OC)c3)[n+]([O-])n2)c1 [compound 21]	> 200 µM	> 200 µM	
COc1ccccc1S(=O)(=O)c1ccc(S(=O)(=O)c2ccccc2OC)[n+]([O-])n1 [compound 22]	> 200 µM	< 50 µM	
Cc1cc(Cl)n[n+]([O-])c1Cl [compound 23]	> 200 µM	> 200 µM	
CCCCS(=O)(=O)c1ccc(S(=O)(=O)CCCC)[n+]([O-])n1 [compound 24]	> 200 µM	50 to 200 µM	
CC(C)(C)S(=O)(=O)c1ccc(S(=O)(=O)C(C)(C)C)[n+]([O-])n1 [compound 25]	> 200 µM	50 to 200 µM	
[O-][n+]1nc(Cl)ccc1SC1CCCCC1 [compound 26]	> 200 µM	> 200 µM	

SMILES	CC50 [1, 5]	CC50 [2, 6]	also measured
O=S(=O)(c1ccc(Cl)n[n+]1[O-])C1CCCCC1 [compound 28]	> 200 µM	< 50 µM	
[O-][n+]1ccccc1Cl [compound 29]	> 200 µM	> 200 µM	
O=S(=O)(c1ccc(Sc2ccccc2)n[n+]1[O-])C1CCCCC1 [compound 30]	> 200 µM	> 200 µM	
CCOc1ccc(S(=O)(=O)C2CCCCC2)[n+]([O-])n1 [compound 31]	> 200 µM	> 200 µM	
[O-][n+]1nc(Cl)c2ccccc2c1Cl [compound 33]	50 to 200 µM	50 to 200 µM	
O=S(=O)(c1ccccc1)c1ccc(S(=O)(=O)C2CCCCC2)[n+]([O-])n1 [compound 34]	> 200 µM	< 50 µM	
[O-][n+]1cc(Cl)ccc1Cl [compound 35]	> 200 µM	> 200 µM	
CCS(=O)(=O)c1ccc(S(=O)(=O)C2CCCCC2)[n+]([O-])n1 [compound 36]	50 to 200 µM	< 50 µM	
O=S(=O)(c1ccc(Cl)c[n+]1[O-])C1CCCCC1 [compound 37]	> 200 µM	> 200 µM	
CCSc1ccc(S(=O)(=O)C2CCCCC2)n[n+]1[O-] [compound 38]	> 200 µM	> 200 µM	
COc1ccccc1S(=O)(=O)c1ccc(S(=O)(=O)C2CCCCC2)[n+]([O-])n1 [compound 39]	50 to 200 µM	< 50 µM	
O=S(=O)(c1ccccc1)c1ccc(Cl)n[n+]1[O-] [compound 40]	> 200 µM	< 50 µM	
O=S(=O)(c1ccccc1)c1ccc(S(=O)(=O)C2CCCCC2)n[n+]1[O-] [compound 41]	> 200 µM	< 50 µM	
O=S(=O)(c1ccc(S(=O)(=O)C2CCCCC2)[n+]([O-])n1)c1ccccc1Cl [compound 42]	50 to 200 µM	< 50 µM	
COC(=O)c1ccccc1S(=O)(=O)c1ccc(S(=O)(=O)C2CCCCC2)[n+]([O-])n1 [compound 43]	> 200 µM	< 50 µM	
O=S(=O)(c1ccccc1)c1n[n+]([O-])c(O)c2ccccc12 [compound 44]	> 200 µM	> 200 µM	
CCS(=O)(=O)c1n[n+]([O-])c(OC(=O)c2cccc(Cl)c2)c2ccccc12 [compound 45]	> 200 µM	> 200 µM	
O=C(O)c1ccccc1Sc1ccc(SC2CCCCC2)[n+]([O-])n1 [compound 46]	> 200 µM	> 200 µM	
O=S(=O)(CCO)c1ccc(S(=O)(=O)C2CCCCC2)[n+]([O-])n1 [compound 47]	> 200 µM	> 200 µM	
COC(=O)CCS(=O)(=O)c1ccc(S(=O)(=O)C2CCCCC2)[n+]([O-])n1 [compound 48]	> 200 µM	< 50 µM	
Cc1ccc(S(=O)(=O)c2ccc(S(=O)(=O)C3CCCCC3)[n+]([O-])n2)cc1 [compound 49]	> 200 µM	50 to 200 µM	
O=S(=O)(c1ccc(O)cc1)c1ccc(S(=O)(=O)C2CCCCC2)[n+]([O-])n1 [compound 50]	> 200 µM	50 to 200 µM	
CC(=O)Oc1ccc(S(=O)(=O)c2ccc(S(=O)(=O)C3CCCCC3)[n+]([O-])n2)cc1 [compound 51]	> 200 µM	50 to 200 µM	
O=S(=O)(c1cc[n+]([O-])cc1)c1ccc(S(=O)(=O)C2CCCCC2)[n+]([O-])n1 [compound 53]	> 200 µM	50 to 200 µM	
[O-][n+]1nc(Sc2ccccc2)ccc1Sc1ccccc1 [pyridazine, 3,6-bis(phenylthio)-, 1-oxide]			CC50 [2, 4]: 58.9 µM
